From patent publication US6576627B1, “Phosphonic acid derivatives having carboxypeptidase b inhibitory activity” (Meiji Seika Kaisha Ltd., priority 1999, dated 2003)

Target: T1, carboxypeptidase B (Homo sapiens, UniProt Q96IY4)
T1 construct: from tissue; host or cells: human plasma (citrated)
T1 sequence (Q96IY4 115-423): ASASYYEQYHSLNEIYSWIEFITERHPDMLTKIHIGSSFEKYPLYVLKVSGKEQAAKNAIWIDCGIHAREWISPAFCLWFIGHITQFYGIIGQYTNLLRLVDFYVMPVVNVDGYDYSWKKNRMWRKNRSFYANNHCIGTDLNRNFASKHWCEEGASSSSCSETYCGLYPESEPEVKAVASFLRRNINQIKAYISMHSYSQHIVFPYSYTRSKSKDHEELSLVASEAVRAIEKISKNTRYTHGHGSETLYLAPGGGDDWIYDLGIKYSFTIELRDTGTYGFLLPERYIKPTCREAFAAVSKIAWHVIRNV
Assay: Inhibitory activity against carboxypeptidase B (activated pro-CPB partially purified from human plasma, Hip-Arg substrate)
Assay type: biochemical
Conditions: tested substance 500 nM, 25° C. for 60 minutes, absorbance at 405 nm
Description: Inhibitory activity of the compounds of the present invention against carboxypeptidase B was measured as follows according to the method described in Thromb. Haemost. 371(1998).
(a) Partial Purification of Carboxypeptidase B Precursor (pro-CPB) from Human Plasma
Human plasma collected over citric acid was added with 80 mM barium chloride and treated at 4° C. for 30 minutes. The supernatant obtained by centrifugation at 10,000 rpm for 20 minutes was dialyzed against 20 mM HEPES buffer containing 0.15 M sodium chloride (pH 7.4). Furthermore, protein in the fractions obtained with 30% to 80% ammonium sulfate were partially purified by chromatography using a Q-Sepharose column (elution with 50 mM tris-HCl buffer (pH 7.4) gradually containing sodium chloride to 0.5 M).
(b) Activation of pro-CPB
pro-CPB (20 μl) was added with 20 μl of a thrombomodulin solution (Thrombomodulin derived from rabbit lung, American Diagnostia Inc., Product No. #237, dissolved at concentration of 300 ng/ml in buffer A as 50 mM tris-HCl buffer (pH 7.4) supplemented with 0.1% Lubrol, 0.1% BSA and 0.15 M sodium chloride), and treated at 25° C. for 3 minutes. Then, the mixture was added with 20 μl of thrombin (Thrombin derived from human plasma, Sigma, Product No. T8885, dissolved at concentration of 3 u/ml in buffer B as 50 mM Tris-HCl buffer (pH 7.4) supplemented with 0.1% BSA, 0.15 M NaCl and 10 mM calcium chloride) and further treated at 25° C. for 30 minutes for activation(*1).
(c) Measurement of CPB Inhibitory Activity
By using a microplate, 4 μl of the sample was added with a mixed solution of 41 μl of buffer C (0.1 M tris-HCl buffer (pH 7.6)) and 25 μl of a substrate solution (Hip-Arg, Sigma, H2508, dissolved in buffer C at concentration of 4 mM.), and further added with 10 μl of the activated CPB solution (*1), and then the mixture was well mixed and allowed to react at 25° C. for 60 minutes. Then, 100 μl of 0.2 M PIPES buffer (pH 7.5) containing 12.5% Tween was added to the mixture to stop the reaction. After 5 minutes, the mixture was added with 100 μl of a coloring solution (2-methoxyethanol containing 1% cyanuryl chloride) and allowed to stand at room temperature for 15 minutes, and then absorbance was measured at 405 nm by using a microplate reader (Bio Rad Model 3550).
Inhibitory activity against carboxypeptidase B was calculated by using the following equation as an inhibitory rate, wherein A represents absorbance in the absence of a tested substance; B represents absorbance in the presence of a tested substance (500 nM); A′ and B′ represent the aforementioned absorbances obtained by using non-activated enzyme without and with the tested substance, respectively.
Inhibitory rate (%)=[1−{(B-B′)/(A-A′)}]×100
The results of the carboxypeptidase B inhibitory rates are shown in Table 1, which were calculated by using the above equation and the results of the measurements in the above experiments for the compounds of the present invention.

Row | Compound | Carboxypeptidase B inhibitory rates by tested substance at 500 nM [%]
1 | CC(C)C(NC(=O)CCc1ccccc1)P(=O)(O)OC(CCCCN)C(=O)O [Example 2, (S)-6-Amino-2-((2-methyl-1-(3-phenylpropanoylamino)propyl)(hydroxyphosphinoyl)oxy)hexanoic acid] | >90

Same assay, conditions: tested substance 500 nM, 25° C. for 60 minutes, absorbance at 405 nm, read-out: Carboxypeptidase B inhibitory rates by tested substance at 500 nM

Row | inhibition at 0.5 µM [%] | Compound
2 | > 90 | NCCCCC(OP(=O)(O)C(NC(=O)CCc1ccccc1)C1CC1)C(=O)O [Example 6, (S)-6-Amino-2-((1-cyclopropyl(3-phenylpropanoylamino)methyl)(hydroxyphosphinoyl)oxy)hexanoic acid]
3 | > 90 | CCC(CC)C(NC(=O)CCc1ccccc1)P(=O)(O)OC(CCCCN)C(=O)O [Example 3, (S)-6-Amino-2-((2-ethyl-1-(3-phenylpropanoylamino)butyl)(hydroxyphosphinoyl)oxy)hexanoic acid]
4 | > 90 | CCCC(NC(=O)CCc1ccccc1)P(=O)(O)OC(CCCCN)C(=O)O [Example 8, (S)-6-Amino-2-((1-(3-phenylpropanoylamino)butyl)(hydroxyphosphinoyl)oxy)hexanoic acid]
5 | 30 | NCCCCC(OP(=O)(O)C(CCCN)NC(=O)CCc1ccccc1)C(=O)O [Example 40, (S)-6-Amino-2-((4-amino-1-(3-phenylpropanoylamino)butyl)(hydroxyphosphinoyl)oxy)hexanoic acid]
6 | 70 | NCCCCC(OP(=O)(O)C(CO)NC(=O)CCc1ccccc1)C(=O)O [Example 37, (S)-6-Amino-2-((2-hydroxy-1-(3-phenylpropanoylamino)ethyl)(hydroxyphosphinoyl)oxy)hexanoic acid]
7 | > 90 | CCC(NC(=O)CCc1ccccc1)P(=O)(O)OC(CCCCN)C(=O)O [Example 16, (S)-6-Amino-2-((1-(3-phenylpropanoylamino)propyl)(hydroxyphosphinoyl)oxy)hexanoic acid]
8 | > 90 | NCCCC[C@H](OP(=O)(O)C(NC(=O)CCc1ccccc1)C1CCC1)C(=O)O (stereo partly drawn) [Example 10, (S)-6-Amino-2-((1-cyclobutyl-1-(3-phenylpropanoylamino)methyl)(hydroxyphosphinoyl)oxy)hexanoic acid]
9 | > 90 | CC(C)CC(NC(=O)CCc1ccccc1)P(=O)(O)OC(CCCCN)C(=O)O [Example 12, (S)-6-Amino-2-((3-methyl-1-(3-phenylpropanoylamino)butyl)(hydroxyphosphinoyl)oxy)hexanoic acid]
10 | 80 | NCCCCC(OP(=O)(O)C(CCC(F)(F)F)NC(=O)CCc1ccccc1)C(=O)O [Example 25, (S)-6-Amino-2-((4,4,4-trifluoro-1-(3-phenylpropanoylamino)butyl)(hydroxyphosphinoyl)oxy)hexanoic acid]
11 | > 90 | CC(C)C(NC(=O)CCCc1ccccc1)P(=O)(O)OC(CCCCN)C(=O)O [Example 24, (S)-6-Amino-2-(2-methyl-1-(4-phenylbutanoylamino)propyl(hydroxyphosphinoyl)oxy)hexanoic acid]
12 | > 90 | CC(NC(=O)CCc1ccccc1)P(=O)(O)OC(CCCCN)C(=O)O [Example 4, (S)-6-Amino-2-((1-(3-phenylpropanoylamino)ethyl)(hydroxyphosphinoyl)oxy)hexanoic acid]
13 | 30 | NCCCC[C@H](OP(=O)(O)CNC(=O)CCc1ccccc1)C(=O)O [Example 5, (S)-6-Amino-2-(((3-phenylpropanoylamino)methyl)(hydroxyphosphinoyl)oxy)hexanoic acid]
14 | 50 | CC(C)(C)CC(NC(=O)CCc1ccccc1)P(=O)(O)OC(CCCCN)C(=O)O [Example 23, (S)-6-Amino-2-((3,3-dimethyl-1-(3-phenylpropanoylamino)butyl)(hydroxyphosphinoyl)oxy)hexanoic acid]

The next lines start with the molecule.

Row | Compound | inhibition at 0.5 µM [%]
15 | CC(C)C(NC(=O)CCc1ccccc1)P(=O)(O)OC(CCCCN)C(=O)O [Example 19, (S)-6-Amino-2-((2-methyl-(1R)-(3-phenylpropanoylamino)propyl)(hydroxyphosphinoyl)oxy)hexanoic acid] | > 90
16 | NCCCCC(OP(=O)(O)C(NC(=O)CCc1ccccc1)C1CCNCC1)C(=O)O [Example 39, (S)-6-Amino-2-((1-(piperidin-4-yl)-1-(3-phenylpropanoylamino)methyl)(hydroxyphosphinoyl)oxy)hexanoic acid] | > 90
17 | C[C@H](NC(=O)OCc1ccccc1)P(=O)(O)O[C@@H](CCCCN)C(=O)O [Example 1, (S)-6-Amino-2-(((R)-1-(benzyloxycarbonylamino)ethyl)(hydroxyphosphinoyl)oxy)hexanoic acid] | 30
18 | NCCCC[C@H](OP(=O)(O)C1(NC(=O)CCc2ccccc2)CCCC1)C(=O)O [Example 20, (S)-6-Amino-2-((1-(3-phenylpropanoylamino)cyclopentyl)(hydroxyphosphinoyl)oxy)hexanoic acid] | > 90
19 | NCCCCC(OP(=O)(O)C(NC(=O)CCc1ccccc1)C1CCCCC1)C(=O)O [Example 9, (S)-6-Amino-2-((1-cyclohexyl-1-(3-phenylpropanoylamino)methyl)(hydroxyphosphinoyl)oxy)hexanoic acid] | > 90
20 | NCCCC[C@H](OP(=O)(O)C1(NC(=O)CCc2ccccc2)CCCCC1)C(=O)O [Example 14, (S)-6-Amino-2-((1-(3-phenylpropanoylamino)cyclohexyl)(hydroxyphosphinoyl)oxy)hexanoic acid] | > 90
21 | NCCCCC(OP(=O)(O)C(NC(=O)CCc1ccccc1)C1CCOCC1)C(=O)O [Example 35, (S)-6-Amino-2-((1-(3-phenylpropanoylamino)-1-(tetrahydropyran-4-yl)methyl)(hydroxyphosphinoyl)oxy)bexanoic acid] | > 90
22 | NCCCCC(OP(=O)(O)C(NC(=O)CCc1ccccc1)c1ccccc1)C(=O)O [Example 34, (S)-6-Amino-2-((1-phenyl-1-(3-phenylpropanoylamino)methyl)(hydroxyphosphinoyl)oxy)hexanoic acid] | 40
23 | CC1CCC(C(NC(=O)CCc2ccccc2)P(=O)(O)OC(CCCCN)C(=O)O)CC1 [Example 41, (S)-6-Amino-2-((1-(4-methylcyclohexyl)-1-(3-phenylpropanoylamino)methyl)(hydroxyphosphinoyl)oxy)hexanoic acid] | > 90

Test system: ICR male mice
Assay: Toxicity test by single administration
Assay type: in vivo
Conditions: single intravenous administration in saline, dose of 1 g/kg, ICR male mice of 5 weeks old
Description: Toxicity Test Example by Single Administration
The compound of Example 19 of the present invention was dissolved in saline intravenously administered to 6 individuals of ICR male mice of 5 weeks old.

Row | Compound | death of the mice or severe toxicity
24 | CC(C)C(NC(=O)CCc1ccccc1)P(=O)(O)OC(CCCCN)C(=O)O [Example 19, (S)-6-Amino-2-((2-methyl-(1R)-(3-phenylpropanoylamino)propyl)(hydroxyphosphinoyl)oxy)hexanoic acid] | no death of the mice or severe toxicity was observed
